Assay results reported in ChEMBL document CHEMBL5634096, “Design, synthesis and bioevaluation of PI3Kα-selective inhibitors as potential colorectal cancer drugs” (Eur J Med Chem, 2023).
The source made the active and inactive calls. The calls are words filed in the database; no cut-off is given here.

Tests used:
[1] = biological target: Phosphatidylinositol 4,5-bisphosphate 3-kinase catalytic subunit alpha isoform (Homo sapiens, UniProt P42336); assay: Inhibition of PI3Kalpha (unknown origin) by ADP-Glo luminescent kinase assay
[2] = biological target: Phosphatidylinositol 4,5-bisphosphate 3-kinase catalytic subunit beta isoform (Homo sapiens, UniProt P42338); assay: Inhibition of PI3Kbeta (unknown origin) by ADP-Glo luminescent kinase assay
[3] = biological target: Serine/threonine-protein kinase mTOR (Homo sapiens, UniProt P42345); assay: Inhibition of mTOR (unknown origin) by lance ultra assay
[4] = test system: MCF7; assay: Antiproliferative activity against human MCF7 cells assessed as reduction in cell viability incubated for 24 to 48 hrs by CCK-8 assay; type: functional, cell-based
[5] = test system: HCT-116; assay: Antiproliferative activity against human HCT-116 cells assessed as reduction in cell viability incubated for 24 to 48 hrs by CCK-8 assay; type: functional, cell-based
[6] = test system: MDA-MB-231; assay: Antiproliferative activity against human MDA-MB-231 cells assessed as reduction in cell viability incubated for 24 to 48 hrs by CCK-8 assay; type: functional, cell-based
[7] = test system: SW-620; assay: Antiproliferative activity against human SW-620 cells assessed as reduction in cell viability incubated for 24 to 48 hrs by CCK-8 assay; type: functional, cell-based
[8] = test system: HCT-116; assay: Antiproliferative activity against human HCT-116 cells expressing PIK3CA with H1047R mutation assessed as reduction in cell viability incubated for 24 to 48 hrs by CCK-8 assay; type: functional, cell-based
[9] = Cytotoxicity against human NCM460 cells assessed as reduction in cell viability incubated for 24 to 48 hrs by CCK-8 assay; type: toxicity, cell-based
[10] = Metabolic stability in Sprague-Dawley rat liver microsomes assessed as intrinsic clearance at 5 ug/ml incubated for 1 hr in presence of NADPH by LC-MS/MS analysis; type: ADME, Microsome; details: dose 5 µg/ml
[11] = biological target: Cytochrome P450 2C9 (Homo sapiens, UniProt P11712); assay: Inhibition of CYP2C9 in human liver microsomes using tolbutamide as substrate pre-incubated for 30 mins followed by substrate addition and measured after 15 mins in presence of NADPH by LC/MS analysis; type: ADME, Microsome
[12] = biological target: Cytochrome P450 2D6 (Homo sapiens, UniProt P10635); assay: Inhibition of CYP2D6 in human liver microsomes using dextromethorphan as substrate pre-incubated for 30 mins followed by substrate addition and measured after 15 mins in presence of NADPH by LC/MS analysis; type: ADME, Microsome
[13] = biological target: Cytochrome P450 3A4 (Homo sapiens, UniProt P08684); assay: Inhibition of CYP3A4 in human liver microsomes using midazolam as substrate pre-incubated for 30 mins followed by substrate addition and measured after 15 mins in presence of NADPH by LC/MS analysis; type: ADME, Microsome
[14] = AUC (0 to t) in Sprague-Dawley rat at 5 mg/kg, iv measured upto 24 hrs by LC-MS analysis; type: ADME, organism-based; details: in vivo
[15] = MRT (0 to t) in Sprague-Dawley rat at 5 mg/kg, iv measured upto 24 hrs by LC-MS analysis; type: ADME, organism-based; details: in vivo
[16] = MRT (0 to infinity) in Sprague-Dawley rat at 5 mg/kg, iv measured upto 24 hrs by LC-MS analysis; type: ADME, organism-based; details: in vivo
[17] = Half life in Sprague-Dawley rat at 5 mg/kg, iv measured upto 24 hrs by LC-MS analysis; type: ADME, organism-based; details: in vivo
[18] = Cmax in Sprague-Dawley rat at 5 mg/kg, iv measured upto 24 hrs by LC-MS analysis; type: ADME, organism-based; details: in vivo
[19] = biological target: Receptor-type tyrosine-protein kinase FLT3 (Homo sapiens) (UniProt P36888); assay: Inhibition of human FLT3 at 1 uM
[20] = test system: A549; assay: Antiproliferative activity against human A549 cells assessed as reduction in cell viability at 10 uM incubated for 24 to 48 hrs by CCK-8 assay; type: functional, cell-based; details: time lower […], time upper 48.0 hrs
[21] = test system: MKN-45; assay: Antiproliferative activity against human MKN-45 cells assessed as reduction in cell viability at 10 uM incubated for 24 to 48 hrs by CCK-8 assay; type: functional, cell-based; details: time lower […], time upper 48.0 hrs
[22] = test system: HeLa; assay: Antiproliferative activity against human HeLa cells assessed as reduction in cell viability at 10 uM incubated for 24 to 48 hrs by CCK-8 assay; type: functional, cell-based; details: time lower […], time upper 48.0 hrs
[23] = test system: K562; assay: Antiproliferative activity against human K562 cells assessed as reduction in cell viability at 10 uM incubated for 24 to 48 hrs by CCK-8 assay; type: functional, cell-based; details: time lower […], time upper 48.0 hrs
[24] = test system: 786-0; assay: Antiproliferative activity against human 786-0 cells assessed as reduction in cell viability at 10 uM incubated for 24 to 48 hrs by CCK-8 assay; type: functional, cell-based; details: time lower […], time upper 48.0 hrs
[25] = test system: GBC-SD; assay: Antiproliferative activity against human GBC-SD cells assessed as reduction in cell viability at 10 uM incubated for 24 to 48 hrs by CCK-8 assay; type: functional, cell-based; details: time lower […], time upper 48.0 hrs
[26] = test system: L02; assay: Cytotoxicity activity against human L02 cells assessed as reduction in cell viability at 10 uM incubated for 24 to 48 hrs by CCK-8 assay; type: toxicity, cell-based; details: l02, 10 µM, time 24-48 hrs
[27] = test system: SF-126; assay: Antiproliferative activity against human SF-126 cells assessed as reduction in cell viability at 10 uM incubated for 24 to 48 hrs by CCK-8 assay; type: functional, cell-based; details: time lower […], time upper 48.0 hrs
[28] = test system: DU-145; assay: Antiproliferative activity against human DU-145 cells assessed as reduction in cell viability at 10 uM incubated for 24 to 48 hrs by CCK-8 assay; type: functional, cell-based; details: time lower […], time upper 48.0 hrs
[29] = test system: PaTu 8988t; assay: Antiproliferative activity against human PaTu 8988t cells assessed as reduction in cell viability at 10 uM incubated for 24 to 48 hrs by CCK-8 assay; type: functional, cell-based; details: time lower […], time upper 48.0 hrs
[30] = test system: HOS; assay: Antiproliferative activity against human HOS cells assessed as reduction in cell viability at 10 uM incubated for 24 to 48 hrs by CCK-8 assay; type: functional, cell-based; details: time lower […], time upper 48.0 hrs
[31] = test system: HCT-116; assay: Antiproliferative activity against human HCT-116 cells assessed as reduction in cell viability incubated for 48 hrs by CCK-8 assay; type: functional, cell-based; details: dose 20-80 µM
[32] = test system: HCT-116; assay: Inhibition of cell migration human HCT-116 cells incubated for 48 hrs by crystal violet staining based transwell assay; type: functional; details: dose 3-12 µM
[33] = test system: HCT-116; assay: Induction of cell cycle arrest in human HCT-116 cells assessed as decrease in accumulation of cells at S phase at 3 to 12 uM incubated for 48 hrs by PI staining based flow cytometry analysis (reference value: 46.9 %); type: functional; design: scale not given: the % may be the effect or the level left; details: dose 3-12 µM
[34] = test system: HCT-116; assay: Induction of apoptosis in human HCT-116 cells assessed as increase in total apoptotic cells at 3 uM incubated for 48 hrs by Annexin V-FITC and propidium iodide staining based flow cytometry analysis (reference value: 4.22 %); type: functional
[35] = test system: HCT-116; assay: Antiproliferative activity against human HCT-116 cells assessed as inhibition of mTOR phosphorylation incubated for 48 hrs by Western blotting analysis; type: functional, cell-based; details: dose 3-12 µM
[36] = test system: HCT-116; assay: Antiproliferative activity against human HCT-116 cells assessed as inhibition of Akt phosphorylation incubated for 48 hrs by Western blotting analysis; type: functional, cell-based; details: dose 3-12 µM
[37] = test system: HCT-116; assay: Antiproliferative activity against human HCT-116 cells assessed as inhibition of ERK1/2 phosphorylation incubated for 48 hrs by Western blotting analysis; type: functional, cell-based; details: dose 3-12 µM
[38] = Metabolic stability in artificial gastrointestinal fluid assessed as compound remaining measured upto 8 hrs by LC-MS/MS analysis; type: ADME

Sequence of Receptor-type tyrosine-protein kinase FLT3 (Homo sapiens) (P36888 whole entry): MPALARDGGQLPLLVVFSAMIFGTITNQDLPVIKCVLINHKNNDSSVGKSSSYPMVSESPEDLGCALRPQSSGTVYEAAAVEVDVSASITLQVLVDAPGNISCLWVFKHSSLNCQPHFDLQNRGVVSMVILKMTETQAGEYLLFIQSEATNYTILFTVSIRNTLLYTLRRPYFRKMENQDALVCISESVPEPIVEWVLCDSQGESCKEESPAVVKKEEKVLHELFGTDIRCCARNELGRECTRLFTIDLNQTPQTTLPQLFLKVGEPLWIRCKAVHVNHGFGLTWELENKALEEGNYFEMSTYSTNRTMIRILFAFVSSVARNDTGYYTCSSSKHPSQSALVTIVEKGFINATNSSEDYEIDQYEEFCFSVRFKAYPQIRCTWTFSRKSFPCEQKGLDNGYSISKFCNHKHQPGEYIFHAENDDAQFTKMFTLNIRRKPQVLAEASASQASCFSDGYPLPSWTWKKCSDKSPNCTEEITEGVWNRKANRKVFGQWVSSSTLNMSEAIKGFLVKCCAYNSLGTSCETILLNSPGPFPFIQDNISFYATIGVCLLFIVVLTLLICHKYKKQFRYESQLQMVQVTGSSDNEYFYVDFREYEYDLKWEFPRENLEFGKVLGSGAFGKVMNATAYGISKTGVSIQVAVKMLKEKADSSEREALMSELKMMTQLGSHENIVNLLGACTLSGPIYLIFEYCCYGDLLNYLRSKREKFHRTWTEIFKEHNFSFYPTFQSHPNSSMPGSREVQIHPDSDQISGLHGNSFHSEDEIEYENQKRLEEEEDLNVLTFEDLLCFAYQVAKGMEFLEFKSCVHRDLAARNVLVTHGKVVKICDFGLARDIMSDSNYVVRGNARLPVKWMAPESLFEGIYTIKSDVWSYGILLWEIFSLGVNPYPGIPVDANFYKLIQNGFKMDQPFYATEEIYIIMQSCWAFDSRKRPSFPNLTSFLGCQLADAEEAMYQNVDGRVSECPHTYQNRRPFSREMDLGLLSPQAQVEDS
Sequence of Phosphatidylinositol 4,5-bisphosphate 3-kinase catalytic subunit alpha isoform (P42336 whole entry, canonical isoform): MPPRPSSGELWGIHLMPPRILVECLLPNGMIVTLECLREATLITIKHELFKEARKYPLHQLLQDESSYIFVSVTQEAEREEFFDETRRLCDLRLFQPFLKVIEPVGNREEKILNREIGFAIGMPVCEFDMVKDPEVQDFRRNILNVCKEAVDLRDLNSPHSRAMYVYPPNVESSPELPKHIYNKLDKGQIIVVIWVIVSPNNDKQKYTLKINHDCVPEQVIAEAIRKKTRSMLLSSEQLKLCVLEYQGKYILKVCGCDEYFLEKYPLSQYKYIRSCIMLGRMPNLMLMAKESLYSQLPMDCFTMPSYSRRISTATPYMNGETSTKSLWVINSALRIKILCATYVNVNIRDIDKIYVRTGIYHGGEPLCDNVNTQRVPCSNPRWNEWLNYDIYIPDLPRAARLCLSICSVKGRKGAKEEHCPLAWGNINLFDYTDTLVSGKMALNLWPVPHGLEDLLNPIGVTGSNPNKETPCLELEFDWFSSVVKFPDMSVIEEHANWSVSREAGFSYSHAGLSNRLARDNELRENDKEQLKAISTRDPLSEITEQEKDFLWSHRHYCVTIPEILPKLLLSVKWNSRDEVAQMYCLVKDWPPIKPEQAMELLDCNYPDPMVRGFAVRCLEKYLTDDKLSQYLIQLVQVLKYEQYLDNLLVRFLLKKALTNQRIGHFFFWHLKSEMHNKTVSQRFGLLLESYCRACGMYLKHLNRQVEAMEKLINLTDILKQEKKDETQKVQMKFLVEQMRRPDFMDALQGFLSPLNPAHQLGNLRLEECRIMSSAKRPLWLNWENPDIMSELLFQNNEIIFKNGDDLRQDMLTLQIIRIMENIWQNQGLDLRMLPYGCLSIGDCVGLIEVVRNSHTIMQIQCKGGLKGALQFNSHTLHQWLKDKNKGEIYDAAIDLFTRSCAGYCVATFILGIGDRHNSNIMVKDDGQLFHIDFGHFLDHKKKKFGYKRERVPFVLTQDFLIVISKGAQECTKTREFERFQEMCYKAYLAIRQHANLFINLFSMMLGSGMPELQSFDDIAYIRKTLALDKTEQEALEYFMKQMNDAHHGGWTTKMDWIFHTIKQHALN
Sequence of Cytochrome P450 2C9 (P11712 whole entry): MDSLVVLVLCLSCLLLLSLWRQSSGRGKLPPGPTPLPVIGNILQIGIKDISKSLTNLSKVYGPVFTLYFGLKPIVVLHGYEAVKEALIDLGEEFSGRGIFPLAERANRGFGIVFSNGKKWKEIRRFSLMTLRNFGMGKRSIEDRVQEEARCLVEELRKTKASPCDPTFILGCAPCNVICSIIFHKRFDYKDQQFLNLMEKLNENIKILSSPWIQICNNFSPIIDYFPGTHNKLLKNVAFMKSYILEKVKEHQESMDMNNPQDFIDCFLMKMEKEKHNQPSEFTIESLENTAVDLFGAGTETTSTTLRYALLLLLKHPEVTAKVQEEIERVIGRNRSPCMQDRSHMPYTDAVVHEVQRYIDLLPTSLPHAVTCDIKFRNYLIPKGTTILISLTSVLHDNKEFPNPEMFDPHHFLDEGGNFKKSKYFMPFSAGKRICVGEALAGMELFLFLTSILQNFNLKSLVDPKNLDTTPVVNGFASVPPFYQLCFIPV
Sequence of Cytochrome P450 2D6 (P10635 whole entry): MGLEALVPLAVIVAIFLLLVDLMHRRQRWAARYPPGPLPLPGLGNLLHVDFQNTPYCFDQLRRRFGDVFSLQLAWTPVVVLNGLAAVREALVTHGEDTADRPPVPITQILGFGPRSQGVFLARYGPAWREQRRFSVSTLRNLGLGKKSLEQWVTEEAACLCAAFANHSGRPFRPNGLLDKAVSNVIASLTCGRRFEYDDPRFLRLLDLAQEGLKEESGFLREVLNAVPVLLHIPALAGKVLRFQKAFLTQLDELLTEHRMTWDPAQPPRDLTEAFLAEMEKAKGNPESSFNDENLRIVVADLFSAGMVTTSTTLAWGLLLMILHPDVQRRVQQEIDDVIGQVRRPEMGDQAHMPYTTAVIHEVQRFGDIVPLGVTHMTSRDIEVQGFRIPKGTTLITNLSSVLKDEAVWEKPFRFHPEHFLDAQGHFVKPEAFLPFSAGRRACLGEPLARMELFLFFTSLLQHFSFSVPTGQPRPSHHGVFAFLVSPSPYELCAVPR
Sequence of Cytochrome P450 3A4 (P08684 whole entry): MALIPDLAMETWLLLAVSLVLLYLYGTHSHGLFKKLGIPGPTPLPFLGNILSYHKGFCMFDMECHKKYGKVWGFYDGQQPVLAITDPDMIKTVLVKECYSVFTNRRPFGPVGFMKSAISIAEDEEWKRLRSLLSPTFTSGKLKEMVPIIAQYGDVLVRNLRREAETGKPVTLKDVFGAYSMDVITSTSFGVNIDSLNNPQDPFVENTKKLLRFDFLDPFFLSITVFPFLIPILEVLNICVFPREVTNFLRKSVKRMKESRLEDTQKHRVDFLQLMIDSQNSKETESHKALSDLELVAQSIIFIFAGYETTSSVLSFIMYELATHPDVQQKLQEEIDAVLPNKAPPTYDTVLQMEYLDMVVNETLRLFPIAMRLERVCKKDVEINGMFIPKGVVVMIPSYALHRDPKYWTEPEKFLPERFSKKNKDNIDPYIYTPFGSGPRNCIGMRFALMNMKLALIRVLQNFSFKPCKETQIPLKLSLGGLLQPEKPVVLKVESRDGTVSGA
Sequence of Phosphatidylinositol 4,5-bisphosphate 3-kinase catalytic subunit beta isoform (P42338 whole entry, canonical isoform): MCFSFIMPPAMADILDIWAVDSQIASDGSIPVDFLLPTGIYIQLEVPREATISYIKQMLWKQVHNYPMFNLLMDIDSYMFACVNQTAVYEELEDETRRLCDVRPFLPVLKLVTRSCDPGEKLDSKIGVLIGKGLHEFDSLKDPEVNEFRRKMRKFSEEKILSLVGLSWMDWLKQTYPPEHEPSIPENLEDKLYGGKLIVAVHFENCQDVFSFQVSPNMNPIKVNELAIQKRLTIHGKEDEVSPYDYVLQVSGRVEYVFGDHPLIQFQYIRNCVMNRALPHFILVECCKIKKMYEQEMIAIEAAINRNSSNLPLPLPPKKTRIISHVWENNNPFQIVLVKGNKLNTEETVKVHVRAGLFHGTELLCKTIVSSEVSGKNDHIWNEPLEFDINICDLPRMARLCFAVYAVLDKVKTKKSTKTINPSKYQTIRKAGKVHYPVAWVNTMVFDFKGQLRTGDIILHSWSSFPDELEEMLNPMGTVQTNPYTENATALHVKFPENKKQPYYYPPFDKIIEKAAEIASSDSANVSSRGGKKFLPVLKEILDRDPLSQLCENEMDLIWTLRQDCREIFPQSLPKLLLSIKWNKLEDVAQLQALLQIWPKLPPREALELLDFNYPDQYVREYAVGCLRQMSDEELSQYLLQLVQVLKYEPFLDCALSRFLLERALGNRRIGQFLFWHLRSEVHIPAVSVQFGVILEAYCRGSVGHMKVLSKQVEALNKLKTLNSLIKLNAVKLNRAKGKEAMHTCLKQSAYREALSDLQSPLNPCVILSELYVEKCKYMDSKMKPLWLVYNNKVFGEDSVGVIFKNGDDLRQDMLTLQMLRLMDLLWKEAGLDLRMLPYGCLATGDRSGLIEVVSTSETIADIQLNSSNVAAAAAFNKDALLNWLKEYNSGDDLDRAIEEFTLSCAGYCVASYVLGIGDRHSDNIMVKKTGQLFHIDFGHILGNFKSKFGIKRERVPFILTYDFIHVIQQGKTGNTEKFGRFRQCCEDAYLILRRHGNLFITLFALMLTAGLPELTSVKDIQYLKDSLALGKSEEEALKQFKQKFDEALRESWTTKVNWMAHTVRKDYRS

Nc1nc2cc(-c3ccc4ncc(N5C[C@@H]6OCCO[C@@H]6C5)nc4c3)ccc2o1
IC50 [1]: 0.0025 µM | IC50 [2]: 0.45 µM | IC50 [3]: 0.601 µM | IC50 [4]: 0.75 µM | IC50 [5]: 3.79 µM | IC50 [6]: 13.7 µM | IC50 [7]: 9.85 µM | IC50 [8]: 7.24 µM | IC50 [9]: 49.7 µM | CLH [10]: 6 µL/min/mg | IC50 [11]: > 10 µM | IC50 [12]: > 10 µM | IC50 [13]: > 10 µM | AUC(0-t) at 24 h [14]: 8230 ng·h/mL | MRT last at 24 h [15]: 1.7 h | MRT inf [16]: 1.8 h | half-life [17]: 5.8 h | Cmax [18]: 6000 ng/mL | inhibition [19]: Active | Activity [20]: Active | Activity [21]: Active | Activity [22]: Active | Activity [23]: Active | Activity [24]: Active | Activity [25]: Active | Activity [26]: Toxic | Activity [27]: Active | Activity [28]: Active | Activity [29]: Active | Activity [30]: Active | Activity [31]: Dose-Dependent Effect | inhibition [32]: Dose-Dependent Effect | Activity [33]: 24.8% | Activity [34]: 5.99% | Activity [35]: Dose-Dependent Effect | Activity [36]: Dose-Dependent Effect | Activity [37]: Dose-Dependent Effect | Stability [38]: Stable
